Reference: patent US4920103A, “Modifications of mycinose and 3-O-demethylmycinose in tylosin-type macrolides” (Eli Lilly and Company, priority 1986, dated 1990)
Values after ≈ are worked out from the molar mass of the structure shown. Where two headings read alike, the source gives them in different places.

How the values were obtained:
Type in all cases: cell-based
[1] = test system: Staphylococcus aureus X1.1; assay: MIC, standard agar-dilution assay, S. aureus X1.1
Description: (§1) The MIC's in Table II were determined by standard agar-dilution assays. The MIC's in Table III were obtained using conventional broth-dilution microtiter tests.

[2] = test system: Staphylococcus aureus X400; assay: MIC, standard agar-dilution assay, S. aureus X400
Description: as §1

[3] = test system: Streptococcus pneumoniae Park I; assay: MIC, standard agar-dilution assay, S. pneumoniae Park I; settings: Streptococcus pneumoniae
Description: as §1

[4] = test system: Streptococcus Group D 2041; assay: MIC, standard agar-dilution assay, Streptococcus Group D 2041; settings: GROUPD2041
Description: as §1

[5] = test system: Klebsiella pneumoniae X68; assay: MIC, standard agar-dilution assay, K. pneumoniae X68
Description: as §1

[6] = test system: Staphylococcus epidermidis EPI1; assay: MIC, standard agar-dilution assay, S. epidermidis EPI1
Description: as §1

[7] = test system: Staphylococcus aureus V41; assay: MIC, standard agar-dilution assay, S. aureus V41; settings: Staphylococcus aureus, V41
Description: as §1

[8] = test system: Pseudomonas aeruginosa X239; assay: MIC, standard agar-dilution assay, P. aeruginosa X239
Description: as §1

[9] = test system: Streptococcus Group D X66; assay: MIC, standard agar-dilution assay, Streptococcus Group D X66
Description: as §1

[10] = test system: Haemophilus influenzae C.L.; assay: MIC, standard agar-dilution assay, H. influenzae C.L.
Description: as §1

[11] = test system: Staphylococcus epidermidis 222; assay: MIC, standard agar-dilution assay, S. epidermidis 222
Description: as §1

[12] = test system: Streptococcus pyogenes C203; assay: MIC, standard agar-dilution assay, S. pyogenes C203; settings: Streptococcus pyogenes, C203
Description: as §1

Escherichia coli EC14 = assay: MIC, standard agar-dilution assay, E. coli EC14
Description: as §1

[13] = test system: Haemophilus influenzae 76; assay: MIC, standard agar-dilution assay, H. influenzae 76
Description: as §1

[14] = test system: Staphylococcus aureus S13E; assay: MIC, standard agar-dilution assay, S. aureus S13E
Description: as §1

[15] = agar-dilution, ampicillin-sensitive strain, read-out: MIC
[16] = agar-dilution, ampicillin-resistant strain, read-out: MIC

Row | SMILES | MIC [1] [µg/mL] | MIC [2] [µg/mL] | MIC [3] [µg/mL] | MIC [4] [µg/mL] | MIC ([5]; agar-dilution, read-out: MIC) [µg/mL] | MIC [6] [µg/mL] | MIC [7] [µg/mL] | MIC ([8]; agar-dilution, read-out: MIC) [µg/mL] | MIC [9] [µg/mL] | MIC [10, 15] [µg/mL] | MIC [11] [µg/mL] | MIC [12] [µg/mL] | MIC (Escherichia coli EC14; agar-dilution, read-out: MIC) [µg/mL] | MIC [13, 16] [µg/mL] | MIC [14] [µg/mL] | MIC ([4]; agar-dilution, read-out: MIC) [µg/mL] | MIC ([12]; agar-dilution, read-out: MIC) [µg/mL] | MIC [10] [µg/mL] | MIC [13] [µg/mL] | also measured
1 | CCC1OC(=O)CC(O)C(C)C(OC2OC(C)C(O)C(N(C)C)C2O)C(CCOc2ccccc2)CC(C)C(=O)C=CC(C)=CC1COC1OC(C)/C(=N\OC)C(OC)C1OC (stereo not drawn) [Compound 6, 4"-O-Methoxyimino-20-DH-20-O-phenyl-desmycosin] | 2 (≈ 2.28 µM) | 2 (≈ 2.28 µM) | 1 (≈ 1.14 µM) | 8 (≈ 9.12 µM) | > 128 | 2 (≈ 2.28 µM) | 2 (≈ 2.28 µM) | > 128 | 4 (≈ 4.56 µM) | > 128 | 2 (≈ 2.28 µM) | 4 (≈ 4.56 µM) | > 128 | > 128 | 2 (≈ 2.28 µM) | – | – | – | – | –
2 | CCC1OC(=O)CC(O)C(C)C(OC2OC(C)C(O)C(N(C)C)C2O)C(CCOc2ccccc2)CC(C)C(=O)C=CC(C)=CC1COC1OC(C)/C(=N/OC)C(OC)C1OC (stereo not drawn) [Compound 7, 4"-O-Methoxyimino-20-DH-20-O-phenyl-desmycosin] | 1 (≈ 1.14 µM) | 1 (≈ 1.14 µM) | 0.5 (≈ 0.57 µM) | – | > 128 | 1 (≈ 1.14 µM) | 1 (≈ 1.14 µM) | > 128 | – | > 128 | 1 (≈ 1.14 µM) | – | > 128 | > 128 | 1 (≈ 1.14 µM) | 4 (≈ 4.56 µM) | 2 (≈ 2.28 µM) | – | – | MIC ([9]; agar-dilution, read-out: MIC): 2 µg/mL (≈ 2.28 µM)
3 | CCC1OC(=O)CC(O)C(C)C(OC2OC(C)C(O)C(N(C)C)C2O)C(CCOc2ccccc2)CC(C)C(=O)C=CC(C)=CC1COC1OC(C)C(OS(=O)(=O)Cc2ccccc2)C(OC)C1OC (stereo not drawn) [Compound 17, 4"-O-Benzylsulfonyl-20-DH-20-O-phenyl-desmycosin] | 4 (≈ 3.98 µM) | 4 (≈ 3.98 µM) | 2 (≈ 1.99 µM) | – | – | 4 (≈ 3.98 µM) | 4 (≈ 3.98 µM) | – | 32 (≈ 31.9 µM) | – | 2 (≈ 1.99 µM) | 4 (≈ 3.98 µM) | – | – | 4 (≈ 3.98 µM) | 128 (≈ 127 µM) | – | > 128 | > 128 | MIC [5]: > 128 µg/mL; MIC [8]: > 128 µg/mL; MIC (Escherichia coli EC14): > 128 µg/mL
4 | CCC1OC(=O)CC(O)C(C)C(OC2OC(C)C(O)C(N(C)C)C2O)C(CCOc2ccccc2)CC(C)C(=O)C=CC(C)=CC1COC1OC(C)C(I)C(OC)C1OC (stereo not drawn) [Compound 19, 4"-Deoxy-4"-iodo-20-DH-20-O-phenyl-desmycosin] | 8 (≈ 8.33 µM) | 8 (≈ 8.33 µM) | 8 (≈ 8.33 µM) | 8 (≈ 8.33 µM) | > 128 | 8 (≈ 8.33 µM) | 8 (≈ 8.33 µM) | > 128 | 8 (≈ 8.33 µM) | > 128 | 8 (≈ 8.33 µM) | 8 (≈ 8.33 µM) | > 128 | > 128 | 8 (≈ 8.33 µM) | – | – | – | – | –
5 | CCC1OC(=O)CC(O)C(C)C(OC2OC(C)C(OC(C)=O)C(N(C)C)C2OC(C)=O)C(CCOc2ccccc2)CC(C)C(=O)C=CC(C)=CC1COC1OC(C)C(N)C(OC)C1OC (stereo not drawn) [Compound 20, 2',4'-Di-O-acetyl-4"-amino-4"-deoxy-20-DH-20-O-phenyldesmycosin] | 0.25 (≈ 0.268 µM) | 0.5 (≈ 0.536 µM) | 1 (≈ 1.07 µM) | 8 (≈ 8.57 µM) | > 128 | 0.5 (≈ 0.536 µM) | 0.25 (≈ 0.268 µM) | > 128 | 4 (≈ 4.29 µM) | – | 0.25 (≈ 0.268 µM) | 0.25 (≈ 0.268 µM) | > 128 | – | 0.5 (≈ 0.536 µM) | – | – | 16 (≈ 17.1 µM) | 16 (≈ 17.1 µM) | –
6 | CCC1OC(=O)CC(O)C(C)C(OC2OC(C)C(OC(C)=O)C(N(C)C)C2OC(C)=O)C(CCOc2ccccc2)CC(C)C(=O)C=CC(C)=CC1COC1OC(C)C([n+]2ccccc2)C(OC)C1OC (stereo not drawn) [Compound 22, 2',4'-Di-O-acetyl-4"-deoxy-20-DH-20-O-phenyl-4"-pyridinium-desmycosin] | 2 | 4 | 2 | 16 | > 128 | 2 | 4 | > 128 | 16 | – | 4 | 4 | > 128 | – | 4 | – | – | 64 | 32 | –
7 | CCC1OC(=O)CC(O)C(C)C(OC2OC(C)C(O)C(N(C)C)C2O)C(CCOc2ccccc2)CC(C)C(=O)C=CC(C)=CC1COC1OC(C)C(NC)C(OC)C1OC (stereo not drawn) [Compound 31, 4"-Deoxy-20-DH-4"-methylamino-20-O-phenyl-desmycosin] | 0.5 (≈ 0.579 µM) | 0.5 (≈ 0.579 µM) | – | 2 (≈ 2.32 µM) | > 128 | – | 0.5 (≈ 0.579 µM) | > 128 | 2 (≈ 2.32 µM) | – | 0.5 (≈ 0.579 µM) | – | > 128 | – | 0.25 (≈ 0.29 µM) | – | 0.125 (≈ 0.145 µM) | 32 (≈ 37.1 µM) | – | MIC ([3]; agar-dilution, read-out: MIC): 0.125 µg/mL (≈ 0.145 µM)
8 | CCC1OC(=O)CC(O)C(C)C(OC2OC(C)C(O)C(N(C)C)C2O)C(CCOc2ccccc2)CC(C)C(=O)C=CC(C)=CC1COC1OC(C)C(NC(C)=O)C(OC)C1OC (stereo not drawn) [Compound 37, 4"-Acetylamino-4"-deoxy-20-DH-20-O-phenyl-desmycosin] | 8 (≈ 8.98 µM) | 4 (≈ 4.49 µM) | 4 (≈ 4.49 µM) | – | > 128 | 8 (≈ 8.98 µM) | 4 (≈ 4.49 µM) | > 128 | 64 (≈ 71.8 µM) | > 128 | 8 (≈ 8.98 µM) | – | > 128 | > 128 | 4 (≈ 4.49 µM) | 128 (≈ 144 µM) | 2 (≈ 2.24 µM) | – | – | –
9 | CCC1OC(=O)CC(O)C(C)C(OC2OC(C)C(OC(C)=O)C(N(C)C)C2OC(C)=O)C(CCOc2ccccc2)CC(C)C(=O)C=CC(C)=CC1COC1OC(C)C(OS(=O)(=O)C(F)(F)F)C(OC)C1OC (stereo not drawn) [Compound 40, 2',4'-Di-O-acetyl-20-DH-20-O-phenyl-4"-O-(trifluoromethanesulfonyl)-desmycosin] | 2 (≈ 1.88 µM) | 2 (≈ 1.88 µM) | 8 (≈ 7.5 µM) | – | > 128 | 2 (≈ 1.88 µM) | 2 (≈ 1.88 µM) | > 128 | – | > 128 | 2 (≈ 1.88 µM) | 2 (≈ 1.88 µM) | > 128 | > 128 | 2 (≈ 1.88 µM) | > 128 | – | – | – | MIC ([9]; agar-dilution, read-out: MIC): > 128 µg/mL
10 | CCC1OC(=O)CC(O)C(C)C(OC2OC(C)C(O)C(N(C)C)C2O)C(CCOc2ccccc2)CC(C)C(=O)C=CC(C)=CC1COC1OC(C)C(n2cccc2)C(OC)C1OC (stereo not drawn) [Compound 46, 4"-Deoxy-20-DH-20-O-phenyl-4"-pyrrol-1-yl-desmycosin] | 8 (≈ 8.9 µM) | 8 (≈ 8.9 µM) | 2 (≈ 2.22 µM) | 64 (≈ 71.2 µM) | – | 8 (≈ 8.9 µM) | 8 (≈ 8.9 µM) | > 128 | 32 (≈ 35.6 µM) | > 128 | 4 (≈ 4.45 µM) | 16 (≈ 17.8 µM) | > 128 | > 128 | 8 (≈ 8.9 µM) | – | – | – | – | –
